Consider eleven compounds from ChEMBL document CHEMBL1201862, “PubChem BioAssay data set” (2004).

Some test systems named below: HT-29; RXF 393; KM12; RPMI-8226; EKVX; UACC-62; MDA-MB-435; SK-MEL-5; SNB-19; SNB-75; NCI-H522; OVCAR-3; OVCAR-8; SK-MEL-28; SF-295; 786-0; HOP-92; NCI-H23; SW-620; T47D.
What all share (assay): NCI-60 cell line screen, 48 h

SMILES strings stand for the structures. “And” between values parts separate entries of the source, which are not always exact repeats. Equal entries are not always repeated.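 Grown in 96-well plates, cells were treated for 48 hours with each compound at five concentrations. Insufficient inhibition: endpoint recorded as highest concentration tested. GI50 is the concentration that inhibits growth by half.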 The source made the active and inactive calls. No stated cut-off is given here; in the data, active = GI50 up to about 1.1 µM and inactive = higher.

As for `O=c1oc2ccccc2cc1-c1cc2ccccn2c1`, the GI50 with HT-29, in the experiment on RXF 393, in the experiment with KM12, in the experiment with RPMI-8226, in the experiment with EKVX and in the experiment with UACC-62 was > 100 µM (inactive) each time. In addition, the GI50 in the experiment with MDA-MB-435, with SK-MEL-5, with SNB-19, with SNB-75, in the experiment with NCI-H522 and in the experiment with OVCAR-3 was > 100 µM (inactive) each time. The GI50 in the experiment with OVCAR-8, in the experiment with SK-MEL-28, in the experiment on SF-295, in the experiment on 786-0, with HOP-92 and with NCI-H23 was > 100 µM (inactive) in each case. Also, the GI50 in the experiment with SW-620 was > 100 µM (inactive).

In the case of `Cn1c(CO)ccc1-c1ccc(-c2ccc[se]2)[se]1`, the GI50 in the experiment with HT-29 is 31.7 µM (inactive); with RXF 393, 3.07 µM (inactive); in the experiment on KM12, 19.8 µM (inactive); in the experiment on RPMI-8226, 20.9 µM (inactive); in the experiment with EKVX, 35.1 µM (inactive); in the experiment on MDA-MB-435 it was 12.6 µM (inactive). The GI50 with SK-MEL-5 was 29.8 µM (inactive); with SNB-19, 30.7 µM (inactive); in the experiment on SNB-75 it was 12.8 µM (inactive); in the experiment on NCI-H522 it was 61.9 µM (inactive); in the experiment on OVCAR-8, 23 µM (inactive); in the experiment with T47D, 0.155 µM (active). Moreover, the GI50 is > 49.5 µM (inactive) in the experiment on SK-MEL-28; 34.6 µM (inactive) in the experiment with SF-295; 29.1 µM (inactive) in the experiment on 786-0; 20.5 µM (inactive) in the experiment on NCI-H23; 0.0959 µM (active) in the experiment with SW-620.

Consider `O=C1CC(c2ccco2)C2(C(=O)NC(=O)NC2=O)C(c2ccco2)C1` (stereo not given), for which the GI50 in the experiment with HT-29, with RXF 393, in the experiment with KM12, in the experiment on RPMI-8226, in the experiment on EKVX and with UACC-62 was > 75 µM (inactive) in each case. In addition, the GI50 in the experiment on MDA-MB-435, with SK-MEL-5, in the experiment with SNB-19, in the experiment on SNB-75, in the experiment with NCI-H522 and in the experiment with OVCAR-3 was > 75 µM (inactive) in each case. Also, the GI50 in the experiment on OVCAR-8, in the experiment on T47D, with SK-MEL-28, in the experiment on SF-295, in the experiment on 786-0 and with NCI-H23 was > 75 µM (inactive) throughout. Also, the GI50 in the experiment on SW-620 was > 75 µM (inactive).

With `C/C(=N\NC(=S)NC(C)C)c1nc2cccnc2[nH]1`, the GI50 is 12.8 µM (inactive) in the experiment with HT-29; 33.8 µM (inactive) in the experiment with RXF 393; 65.8 µM (inactive) with KM12; > 100 µM (inactive) in the experiment with RPMI-8226; 13.5 µM (inactive) in the experiment on EKVX; 29.8 µM (inactive) in the experiment with UACC-62. Further, the GI50 is 13.1 µM (inactive) with SK-MEL-5; 30.9 µM (inactive) in the experiment on SNB-19; 28.1 µM (inactive) in the experiment with SNB-75; 13.8 µM (inactive) in the experiment on NCI-H522; 6.62 µM (inactive) in the experiment with OVCAR-3; 7.98 µM (inactive) in the experiment on OVCAR-8. For the same compound, the GI50 is 0.33 µM (active) with T47D; > 100 µM (inactive) in the experiment on SK-MEL-28; 12 µM (inactive) with SF-295; 20.3 µM (inactive) in the experiment on 786-0; 39.9 µM (inactive) in the experiment with HOP-92; 12.1 µM (inactive) in the experiment on SW-620.

Regarding `CC(C)(C)OC(=O)NCC(CNC(=O)OC(C)(C)C)c1nc(C(N)=O)cs1`, the GI50 in the experiment with HT-29, in the experiment with RXF 393, in the experiment on KM12, with EKVX, with UACC-62 and in the experiment on MDA-MB-435 was > 100 µM (inactive) in each case. Moreover, the GI50 with SK-MEL-5 is > 100 µM (inactive); in the experiment on SNB-19 it was > 100 µM (inactive); with SNB-75, 0.818 µM (active); with OVCAR-3, > 100 µM (inactive); with OVCAR-8, > 100 µM (inactive); in the experiment on SK-MEL-28 it was > 100 µM (inactive). Further, the GI50 in the experiment with SF-295, with 786-0, in the experiment with HOP-92, in the experiment with NCI-H23 and with SW-620 was > 100 µM (inactive) throughout.

Take `Cc1ccc(S(=O)(=O)OCCC2CN(C(=O)OCc3ccccc3)C(C)(C)O2)cc1` (stereo not given): the GI50 is 6.4 µM (inactive) in the experiment with RXF 393; 2.75 µM (inactive) in the experiment on KM12; 3.92 µM (inactive) in the experiment with RPMI-8226; 18.3 µM (inactive) in the experiment on EKVX; 10.2 µM (inactive) in the experiment on UACC-62; 3.61 µM (inactive) with MDA-MB-435. Moreover, the GI50 in the experiment on SK-MEL-5 was 2.72 µM (inactive); in the experiment on SNB-19 it was 3.83 µM (inactive); with NCI-H522 it was 2.7 µM (inactive); with OVCAR-3, 39.6 µM (inactive); with OVCAR-8, 4.2 µM (inactive); in the experiment on SK-MEL-28, 11.4 µM (inactive). The GI50 is 13.5 µM (inactive) in the experiment on SF-295; 11.6 µM (inactive) with 786-0; 62.2 µM (inactive) with HOP-92; 2.96 µM (inactive) with NCI-H23; 14.3 µM (inactive) with SW-620.

Regarding `O=c1[nH]nc(-c2ccc3ccccc3c2)[nH]1`, the GI50 with HT-29 was > 100 µM (inactive); in the experiment with RXF 393, > 100 µM (inactive); in the experiment with KM12 it was 36.2 µM (inactive); with RPMI-8226, > 100 µM (inactive); in the experiment on EKVX, 0.282 µM (active); in the experiment with UACC-62, 21 µM (inactive). Further, the GI50 was > 100 µM (inactive) in the experiment on MDA-MB-435; > 100 µM (inactive) in the experiment on SNB-19; 22.9 µM (inactive) in the experiment on SNB-75; > 100 µM (inactive) with NCI-H522; > 100 µM (inactive) in the experiment with OVCAR-3; > 100 µM (inactive) in the experiment on OVCAR-8. The GI50 in the experiment with T47D is > 100 µM (inactive); with SK-MEL-28, > 100 µM (inactive); with SF-295 it was 45.5 µM (inactive); with 786-0, > 100 µM (inactive); in the experiment on NCI-H23 it was > 100 µM (inactive); in the experiment with SW-620 it was > 100 µM (inactive).

Consider `CCCCc1c(C(=O)OC(C)(C)C)cc(C#Cc2cc(C(=O)OC(C)(C)C)c(CCCC)c(C(=O)OC(C)(C)C)c2)cc1C(=O)OC(C)(C)C`, for which the GI50 with KM12, with RPMI-8226, in the experiment on EKVX, in the experiment with UACC-62, in the experiment on MDA-MB-435 and in the experiment on SK-MEL-5 was > 100 µM (inactive) each time. The GI50 in the experiment with SNB-19, in the experiment on SNB-75, in the experiment with NCI-H522, with OVCAR-3, with T47D and in the experiment with SK-MEL-28 was > 100 µM (inactive) in each case. Further, the GI50 with SF-295, in the experiment on 786-0, with HOP-92 and in the experiment with NCI-H23 was > 100 µM (inactive) throughout.

In the case of `O=C(O)/C=c1/c2ccccc2n2nc3ccccc3c12`, the GI50 in the experiment on HT-29 is 39.3 µM (inactive); in the experiment with RXF 393, 49.1 µM (inactive); in the experiment with KM12 it was 20.4 µM (inactive); in the experiment on RPMI-8226, 25.8 µM (inactive); with EKVX, 37.1 µM (inactive); with UACC-62 it was 17.5 µM (inactive). In addition, the GI50 in the experiment with MDA-MB-435 was 31.6 µM (inactive); with SK-MEL-5, 14.2 µM (inactive); in the experiment on SNB-19, 31.8 µM (inactive); in the experiment on NCI-H522, 20.7 µM (inactive); with OVCAR-3, 33.5 µM (inactive); with OVCAR-8 it was 21.5 µM (inactive). Also, the GI50 in the experiment with T47D is 55.5 µM (inactive); in the experiment with SK-MEL-28, 26 µM (inactive); in the experiment with SF-295, 30.8 µM (inactive); in the experiment on 786-0, 38.6 µM (inactive); in the experiment on NCI-H23, 27.7 µM (inactive); in the experiment with SW-620, 35.6 µM (inactive).

For the compound `O=c1[nH]nc(Cc2ccccc2)n1/N=C/c1ccc(/C=N/n2c(Cc3ccccc3)n[nH]c2=O)cc1`, the GI50 in the experiment on HT-29 was > 100 µM (inactive); in the experiment on RXF 393, 35.3 µM (inactive); with KM12 it was > 100 µM (inactive); in the experiment on RPMI-8226 it was > 100 µM (inactive); with EKVX, > 100 µM (inactive); in the experiment with UACC-62, > 100 µM (inactive). Also, the GI50 with MDA-MB-435, with SK-MEL-5, in the experiment on SNB-19, with NCI-H522, in the experiment on OVCAR-3 and with OVCAR-8 was > 100 µM (inactive) in each case. Also, the GI50 with T47D was > 100 µM (inactive); in the experiment with SK-MEL-28 it was > 100 µM (inactive); in the experiment on SF-295, 77.3 µM (inactive); with 786-0, > 100 µM (inactive); in the experiment on NCI-H23 it was > 100 µM (inactive); in the experiment on SW-620, > 100 µM (inactive).

Turning to `c1ccc2[nH]c(-c3cscn3)nc2c1` [THIABENDAZOLE], the GI50 was > 100 µM (inactive) and 77.1 µM (inactive) in the experiment with HT-29; > 100 µM (inactive) in the experiment on KM12; > 100 µM (inactive) in the experiment on EKVX; > 100 µM (inactive) in the experiment with UACC-62; 74.3 µM (inactive) and 44.4 µM (inactive) in the experiment on MDA-MB-435; > 100 µM (inactive) in the experiment on SK-MEL-5. The GI50 with SNB-19, with SNB-75, in the experiment with NCI-H522, in the experiment with OVCAR-3, with OVCAR-8 and in the experiment on T47D was > 100 µM (inactive) throughout. The GI50 with SK-MEL-28, with SF-295, in the experiment on 786-0, in the experiment on HOP-92, with NCI-H23 and in the experiment on SW-620 was > 100 µM (inactive) in each case.
